Measurements reported in patent publication US3954793A, “1-(2-Propynyl)-1 H-indazole compounds” (priority 1973, dated 1976).

Experiments:
male mice = test: extension of sleeping time of depressant drugs by synergists; format: in vivo, male mice (Swiss albino white); details: for Mean Sleeping Time, Noludar / Relative Sleeping Time, Noludar: Noludar 110 mg/kg; for Relative Sleeping Time, Noludar / Relative Sleeping Time, Secobarbital: treated/control; for Mean Sleeping Time, Secobarbital / Relative Sleeping Time, Secobarbital: Secobarbital 37 mg/kg
Summary of the method: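 Swiss albino male mice (~38 days, 25-30 g) given synergist at 74.0 or 110.0 mg/kg in corn oil 1 h before Secobarbital 37.0 mg/kg or Noludar 110.0 mg/kg in water. Sleeping time measured from drug dosing to righting-reflex recovery; relative sleeping time = treated ÷ drug-only control.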

[1] = tested on: Swiss albino, white male mice; test: acute toxicity and synergism of acute toxicity in mice; format: in vivo; details: for number of mice dead, with Dimetilan: 48 hours; for number of mice dead, with Dimetilan / number of mice dead, synergist alone: eight mice; for number of mice dead, with GS 13005: GS 13005 71 + synergist 213 mg/kg; for number of mice dead, with Methadone: Methadone 32 + synergist 215 mg/kg; for number of mice dead, with Secobarbital: Secobarbital 90 + synergist 215 mg/kg; for number of mice dead, synergist alone: synergist 1000 mg/kg i.p., Dimetilan 0, 72 hours
Summary of the method: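 Male Swiss albino mice (23 to 27 g, five to six weeks), eight per dose, dosed intraperitoneally in corn oil: dimetilan alone at 4 to 32 mg per kg, synergists alone at 1000 mg/kg with deaths counted at 72 hours. For synergism, synergist given 1 hour before insecticide, lethality observed for at least 6 hours.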

[2] = tested on: Rutgers A strain house flies; test: topical application, percent kill after 24 hours, resistant Rutgers A strain; format: in vivo, female); details: for percent kill after 24 hours, with GS 13005: GS 13005 1.0 + synergist 5.0 μg/fly
Summary of the method: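 Synergist plus mobam, Diazinon or GS 13005 dissolved in acetone, applied as 1.0 μl to the thorax of CO2-anaesthetised 3-to-5 day old female Rutgers A (resistant) house flies; doses in μg/fly. Flies held 10 per dish, 3-5 dishes per treatment, with skim milk; mortality scored at 24 h.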

[3] = synergist 110 mg/kg one hour prior
[4] = synergist 74 mg/kg one hour prior
[5] = Dimetilan 8 + synergist 80 mg/kg i.p.
[6] = Dimetilan 8 + synergist 240 mg/kg i.p.
[7] = Diazinon 1.0 + synergist 3.0 μg/fly
[8] = Diazinon 3.0 + synergist 3.0 μg/fly
[9] = Mobam 0.30 + synergist 1.5 μg/fly
[10] = insecticide 0, synergist 5.0 μg/fly
[11] = Diazinon 1.5 + synergist 7.5 μg/fly
[12] = Diazinon 3.0 + synergist 15 μg/fly
[13] = insecticide 0, synergist 7.5 μg/fly
[14] = insecticide 0, synergist 15 μg/fly
[15] = Mobam 0.40 + synergist 2.0 μg/fly
[16] = Mobam 0.60 + synergist 3.0 μg/fly
[17] = Mobam 0.15 + synergist 0.75 μg/fly

Structure (SMILES)	Mean Sleeping Time, Noludar (male mice; [3])	Relative Sleeping Time, Noludar (male mice; synergist 110 mg/kg)	Mean Sleeping Time, Secobarbital (male mice; [4])	Relative Sleeping Time, Secobarbital (male mice; synergist 74 mg/kg)	Mean Sleeping Time, Secobarbital (male mice; [3])	Relative Sleeping Time, Secobarbital (male mice; synergist 110 mg/kg)	number of mice dead, with Dimetilan [1, 5]	number of mice dead, with Dimetilan [1, 6]	percent kill after 24 hours, with GS 13005 [2]	percent kill after 24 hours, with Mobam [2, 9]	percent kill after 24 hours, synergist alone [2, 10]	percent kill after 24 hours, synergist alone [2, 13]	number of mice dead, with GS 13005 [1]	number of mice dead, synergist alone [1]	other results
C#CCON=C(C)c1ccc2ccccc2c1 [I-F]	55 min	1.4	32 min	1.1	70 min	2.2	0	4	95%	38%	0%				percent kill after 24 hours, with Diazinon [2, 7]: 5%; percent kill after 24 hours, with Diazinon [2, 8]: 95%
C#CCON=Cc1cccc2ccccc12 [I-I]	62 min	2.1	31 min	1.1	102 min	1.7	0	3				0%			percent kill after 24 hours, with Diazinon [2, 11]: 0%; percent kill after 24 hours, with Diazinon [2, 12]: 53%; percent kill after 24 hours, synergist alone [2, 14]: 0%
C#CCOCc1c(Cl)cccc1[N+](=O)[O-] [II-K]	75 min	2.4	48 min	1.5	44 min	2	0	6	100%		0%		3	1	number of mice dead, with Methadone [1]: 2; number of mice dead, with Secobarbital [1]: 1; percent kill after 24 hours, with Mobam [2, 15]: 97%
C#CCOCc1ccc(Cl)c(Cl)c1Cl [II-D]	46 min	1.0			60 min	1.2		0				0%	3	0	number of mice dead, with Methadone [1]: 2; number of mice dead, with Secobarbital [1]: 1; percent kill after 24 hours, with Mobam [2, 16]: 92%
C#CCOCc1cc(Cl)c(Cl)cc1Cl [II-F]	38 min	1.3			46 min	1.0		0							
C#CCOCc1c(Cl)cccc1Cl [II-H]	68 min	2.2	44 min	1.4	51 min	2.1	0	6	100%		7%		7	0	number of mice dead, with Methadone [1]: 4; number of mice dead, with Secobarbital [1]: 0; percent kill after 24 hours, with Mobam [2, 15]: 100%
C#CCOCc1ccc(Cl)c(Cl)c1 [II-C]	50 min	1.3			33 min	1.0		0		20%		0%			percent kill after 24 hours, with Mobam [2, 16]: 67%
C#CCOCc1c(Cl)ccc(Cl)c1Cl [II-E]	45 min	1.1			44 min	1.4		0		70%		0%			percent kill after 24 hours, with Mobam [2, 17]: 17%; percent kill after 24 hours, with Mobam [2, 16]: 99%
C#CCOCc1ccccc1[N+](=O)[O-] [II-P, 2-nitrobenzyl 2-propynyl ether]	44 min	1.5			46 min	1.0		0	92%		0%		6	2	number of mice dead, with Methadone [1]: 0; number of mice dead, with Secobarbital [1]: 0
C#CCOCc1cccc2ccccc12 [II-R, α-napthylmethyl 2-propynyl ether]	49 min	1.7	35 min	1.2	96 min	1.6	0	2	55%		0%				
C#CCON=Cc1ccc(Cl)cc1Cl [I-G]	48 min	1.2	27 min	1.0	55 min	1.7		0				0%			percent kill after 24 hours, with Diazinon [2, 11]: 60%; percent kill after 24 hours, with Diazinon [2, 12]: 100%; percent kill after 24 hours, synergist alone [2, 14]: 0%
C#CCON=C(C)c1ccc(Cl)cc1 [I-D]	58 min	1.5	62 min	1.9	56 min	1.7	1	6		95%		0%			percent kill after 24 hours, with Diazinon [2, 11]: 69%; percent kill after 24 hours, with Mobam [2, 17]: 19%; percent kill after 24 hours, with Mobam [2, 16]: 100%
C#CCON=Cc1cccc([N+](=O)[O-])c1 [I-B]	70 min	2.4	54 min	1.5	106 min	1.7	1	6	100%	40%	0%				percent kill after 24 hours, with Diazinon [2, 7]: 5%; percent kill after 24 hours, with Diazinon [2, 8]: 90%
C#CCOCc1ccc([N+](=O)[O-])cc1 [II-Q, 4-nitrobenzyl 2-propynyl ether]	41 min	2.1	30 min	1.1	73 min	1.6		1	100%		0%		6	7	
C#CCOC(c1ccc(Cl)cc1)C(C)[N+](=O)[O-] (stereo not shown) [IV-C]	74 min	2.5	112 min	4.7			5	7	95%		0%				percent kill after 24 hours, with Diazinon [2, 8]: 19%
